Assay results from US8846704B2, “Thiopyrimidine-based compounds and uses thereof” (YM Biosciences Austraila Pty Ltd, priority 2007, dated 2014).

Experiments:
Assay type in all cases: cell-based
CTLL2 = assay: Cellular screening, CTLL2 cells, Alamar Blue; details: Mus musculus, CTLL-2, read-out: CTLL2 IC50_nM
Procedure, shortened: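 Viability is read with Alamar Blue at 544 nm, the dye added for the final 4-6 hours. Compounds were incubated for 40 hr with CTLL2 cells taken from late-log-phase culture, at 37° C in 5% CO2.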

BaF3 TELJAK3 cells = target: T1, BaF3 TELJAK3 cells (Homo sapiens, UniProt P52333); assay: Cellular screening, BaF3 TEL:JAK3 cells, Alamar Blue; details: 40 hr, read-out: BafT_J3 IC50_nM
T1 construct: fused on or other part: TEL (ETV6) N-terminal part, coding nucleotides 1-487, serves as the oligomerising partner; It is fused through a Sal I site to the JAK3 kinase domain and expressed from pTRE2 in BaF3 cells bearing pTET-off; P41212 (Transcription factor ETV6)
T1 sequence (P52333 1-1124): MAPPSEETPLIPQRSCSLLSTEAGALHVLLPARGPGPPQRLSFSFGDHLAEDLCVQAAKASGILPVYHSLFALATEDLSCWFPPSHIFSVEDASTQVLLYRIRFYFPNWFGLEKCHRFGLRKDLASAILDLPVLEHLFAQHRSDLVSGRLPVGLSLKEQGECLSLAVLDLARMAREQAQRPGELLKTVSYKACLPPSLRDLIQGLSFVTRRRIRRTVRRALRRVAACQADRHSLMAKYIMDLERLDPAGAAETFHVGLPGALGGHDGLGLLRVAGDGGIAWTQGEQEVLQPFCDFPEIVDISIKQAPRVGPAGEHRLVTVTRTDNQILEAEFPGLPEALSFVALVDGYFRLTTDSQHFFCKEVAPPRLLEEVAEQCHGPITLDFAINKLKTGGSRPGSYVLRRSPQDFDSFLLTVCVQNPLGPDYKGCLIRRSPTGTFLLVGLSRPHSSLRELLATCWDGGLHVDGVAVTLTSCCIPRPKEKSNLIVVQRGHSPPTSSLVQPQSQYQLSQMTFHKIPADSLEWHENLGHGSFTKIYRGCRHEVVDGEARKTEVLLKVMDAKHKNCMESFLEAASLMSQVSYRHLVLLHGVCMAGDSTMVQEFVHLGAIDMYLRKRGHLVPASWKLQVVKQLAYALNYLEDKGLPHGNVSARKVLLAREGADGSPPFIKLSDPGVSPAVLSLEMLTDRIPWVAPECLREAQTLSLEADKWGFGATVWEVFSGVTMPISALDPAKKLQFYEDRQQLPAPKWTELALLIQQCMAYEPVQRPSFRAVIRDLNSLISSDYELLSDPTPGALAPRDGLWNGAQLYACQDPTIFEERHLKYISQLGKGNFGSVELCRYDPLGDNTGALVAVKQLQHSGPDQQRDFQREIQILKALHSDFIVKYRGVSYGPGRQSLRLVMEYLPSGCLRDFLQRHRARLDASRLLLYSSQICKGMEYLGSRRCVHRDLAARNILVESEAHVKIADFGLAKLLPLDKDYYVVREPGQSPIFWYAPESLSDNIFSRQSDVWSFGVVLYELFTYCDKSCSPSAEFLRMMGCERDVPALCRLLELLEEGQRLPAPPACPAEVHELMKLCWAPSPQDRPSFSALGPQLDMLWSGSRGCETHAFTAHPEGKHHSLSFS
Procedure, shortened: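 Alamar Blue signal at 544 nm, developed for 4–6 h, measured viability after 40 h of compound treatment at 37 °C, 5% CO2. Cells were growth-factor-independent BaF3 lines transfected with a TEL/JAK3 kinase-domain fusion under tet-off control. They were cultured in DMEM, 10% Tet-approved FBS, lacking WEHI 3B conditioned medium.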

[1] = target: T2, BaF3 TELJAK2 cells (BafT_J2) (Homo sapiens, UniProt O60674); assay: Cellular screening, BaF3 TEL:JAK2 cells, Alamar Blue; details: 40 hr, read-out: BafT_J2 IC50_nM
T2 construct: fused on or other part: TEL (ETV6) N-terminal part, coding nucleotides 1-487, serves as the oligomerising partner; It is fused through a Sal I site to the JAK2 kinase domain and expressed from pTRE2 in BaF3 cells bearing pTET-off; P41212 (Transcription factor ETV6)
Procedure, shortened: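 Tet-off BaF3 cells carrying a TEL (nt 1-487)–JAK2 kinase-domain fusion, grown factor-independently in DMEM with 10% Tet-approved FBS without WEHI 3B medium. Compounds were diluted to 20 μM in screening plates, and cells (50,000–200,000 cell/mL at 1.1×) were incubated 40 hr at 37 °C, 5% CO2. Alamar Blue was then added for 4-6 hours; read at 544 nm.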

T2 sequence (O60674 whole entry, change not shown, the tested form may be a part): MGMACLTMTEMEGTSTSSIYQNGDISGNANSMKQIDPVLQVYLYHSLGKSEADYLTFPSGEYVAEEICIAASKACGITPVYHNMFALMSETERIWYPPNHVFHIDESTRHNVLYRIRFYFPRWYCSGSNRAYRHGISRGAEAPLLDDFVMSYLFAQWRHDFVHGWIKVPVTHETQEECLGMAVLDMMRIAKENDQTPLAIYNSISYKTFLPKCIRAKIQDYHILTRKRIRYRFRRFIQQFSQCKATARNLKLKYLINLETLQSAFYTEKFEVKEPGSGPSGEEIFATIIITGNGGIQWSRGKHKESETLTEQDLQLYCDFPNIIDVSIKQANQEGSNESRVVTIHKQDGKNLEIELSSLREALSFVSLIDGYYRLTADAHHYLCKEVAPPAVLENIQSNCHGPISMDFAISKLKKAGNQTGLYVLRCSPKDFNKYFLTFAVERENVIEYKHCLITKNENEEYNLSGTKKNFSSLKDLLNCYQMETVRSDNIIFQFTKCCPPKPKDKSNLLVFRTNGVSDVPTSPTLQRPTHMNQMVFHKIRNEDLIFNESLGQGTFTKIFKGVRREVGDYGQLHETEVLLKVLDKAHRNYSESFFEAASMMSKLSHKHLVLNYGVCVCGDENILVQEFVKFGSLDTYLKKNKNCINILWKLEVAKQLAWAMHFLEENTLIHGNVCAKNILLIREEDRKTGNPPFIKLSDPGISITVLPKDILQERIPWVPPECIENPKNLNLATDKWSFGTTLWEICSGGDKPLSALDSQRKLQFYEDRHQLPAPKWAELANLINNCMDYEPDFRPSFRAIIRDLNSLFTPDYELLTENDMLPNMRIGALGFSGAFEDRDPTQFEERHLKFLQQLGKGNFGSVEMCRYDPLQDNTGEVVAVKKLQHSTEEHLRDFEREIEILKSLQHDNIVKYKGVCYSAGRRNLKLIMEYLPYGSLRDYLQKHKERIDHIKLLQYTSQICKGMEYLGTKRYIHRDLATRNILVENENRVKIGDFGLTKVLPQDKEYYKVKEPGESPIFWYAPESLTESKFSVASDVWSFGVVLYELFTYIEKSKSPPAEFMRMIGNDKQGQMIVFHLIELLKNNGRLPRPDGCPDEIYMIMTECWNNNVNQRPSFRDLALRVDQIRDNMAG

| SMILES | IC50 (CTLL2) [µM] | GI50 (BaF3 TELJAK3 cells) [nM] | GI50 [1] [µM] |
| --- | --- | --- | --- |
| C=CC(=O)Nc1ccc(Sc2nc(Nc3ccc(CNS(C)(=O)=O)cc3)ncc2C)cc1 [Compound 294, N-(4-(5-methyl-2-(4-(methylsulfonamidomethyl)phenylao)pyrimidin-4-ylthio)phenyl)acrylamide] | < 1 | < 1000 | > 20 |
| C=CC(=O)Nc1ccc(Sc2ccnc(Nc3ccc4c(c3)OCO4)n2)cc1 [Compound 393, N-(4-(2-(benzo[d][1,3]dioxol-5-ylao)pyrimidin-4-ylthio)phenyl)acrylamide] | < 5 | < 1000 | < 20 |
| C=CC(=O)Nc1cc(C)c(Sc2nc(Nc3ccc(N4CCOCC4)cc3)ncc2C)c(C)c1 [Compound 164, N-(3,5-dimethyl-4-(5-methyl-2-(4-morpholinophenylao)pyrimidin-4-ylthio)phenyl)acrylamide] | < 1 | < 1000 | < 20 |
| C=CC(=O)Nc1ccc(Sc2ccnc(Nc3ccc(S(=O)(=O)NCc4ccccc4)cc3)n2)cc1 [Compound 368, N-(4-(2-(4-(N-benzylsulfamoyl)phenylao)pyrimidin-4-ylthio)phenyl)acrylamide] | < 5 | < 5000 | < 20 |
| Cc1cnc(Nc2ccc(N3CCOCC3)cc2)nc1Sc1ccc(N2C(=O)CCC2=O)cc1 [Compound 384, 1-(4-(5-methyl-2-(4-morpholinophenylao)pyrimidin-4-ylthio)phenyl)pyrrolidine-2,5-dione] | > 20 | > 20000 | > 20 |
| O=C(Nc1ccc(Sc2ccnc(Nc3ccc(N4CCOCC4)cc3)n2)cc1)C1CC1(F)Cl (stereo not drawn) [Compound 378, 2-chloro-2-fluoro-N-(4-(2-(4-morpholinophenylao)pyrimidin-4-ylthio)phenyl)cyclopropanecarboxamide] | > 20 | < 1000 | < 1 |
